Target: T1, PPARγ ligand binding domain (LBD) (amino acids 195-475) (Homo sapiens, UniProt P37231)
T1 construct: polyHis; made in house; host or cells: Escherichia coli
T1 sequence (P37231 195-475 isoform P37231-2): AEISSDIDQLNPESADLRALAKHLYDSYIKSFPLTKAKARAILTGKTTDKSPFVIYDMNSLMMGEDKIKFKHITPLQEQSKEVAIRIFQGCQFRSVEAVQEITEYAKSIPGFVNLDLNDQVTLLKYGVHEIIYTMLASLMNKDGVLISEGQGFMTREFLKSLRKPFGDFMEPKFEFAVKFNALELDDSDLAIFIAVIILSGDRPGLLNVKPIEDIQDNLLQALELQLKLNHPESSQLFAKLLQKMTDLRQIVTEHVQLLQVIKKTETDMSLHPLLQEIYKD
Experiment: PPAR-γ binding assay (spin plate / gel filtration binding assay, displacement of [3H]BRL 49653)
Details: read-out: IC50 range in the PPAR-γ Binding Assay
Description: The activity of a given compound in binding to PPAR-γ can be assayed routinely according to procedures known in the art. […] The PPAR-γ binding assay described below was used to determine the PPAR-γ binding activities of the compounds of the invention.
Compounds were tested for their ability to bind to PPARγ using a spin plate assay (gel filtration binding assay). […] Each compound was tested in triplicate. […] The plates were centrifuged (Beckman GS-6R) at 2500 rpm for 5 minutes, 170 μl Scitisafe® scintillation fluid (Fisher) was added to each well, the plates were sealed, and after 1 hour, were counted in a Wallac MicroBeta counter. The amount of nonspecific binding, as assessed by control wells containing 10 μM of the corresponding unlabeled ligand, was subtracted from each data point. For each compound tested, the data was averaged and plots of ligand concentration versus CPM of radioligand bound were constructed. Apparent IC50 values were estimated from nonlinear least-squares fit of the data assuming simple competitive binding.

IC50 | Structure (SMILES)
0.1 to 9.99 nM | O=C(O)c1c(-c2cc3ccccc3s2)c2ccccc2n1Cc1cccc(C(F)(F)F)c1 [Example 232, 3-(Benzothien-2-yl)-1-[3-(trifluoromethyl)benzyl)-indole-2-carboxylic acid]
10 to 10000 nM | COc1ccc(-c2c(C(=O)O)n(Cc3cccc(OC)c3)c3ccc(OCCN(C)c4nc5ccccc5o4)cc23)cc1 [Example 233]
0.1 to 9.99 nM | COc1ccc(-c2c(C(=O)O)n(Cc3cccc(C(F)(F)F)c3)c3ccc(OCCCN(C)c4nc5ccccc5o4)cc23)cc1 [Example 234]
10 to 10000 nM | CC1(C)COC(c2c(C(=O)O)n(Cc3cccc(C(F)(F)F)c3)c3ccccc23)=N1 [Example 238]
10 to 10000 nM | O=C(O)c1c(C2=NC3(CCCC3)CO2)c2ccccc2n1Cc1cccc(C(F)(F)F)c1 [Example 239]
10 to 10000 nM | O=C(O)c1c(-c2nc3ccccc3o2)c2ccccc2n1Cc1cccc(C(F)(F)F)c1 [Example 247]
10 to 10000 nM | O=C(O)c1c(-c2nc3cc(Cl)ccc3o2)c2ccccc2n1Cc1cccc(C(F)(F)F)c1 [Example 248]
0.1 to 9.99 nM | CC(C)(C)c1ccc2oc(-c3c(C(=O)O)n(Cc4cccc(C(F)(F)F)c4)c4ccccc34)nc2c1 [Example 249]
0.1 to 9.99 nM | O=C(O)c1c(-c2nc3ccccc3s2)c2ccccc2n1Cc1cccc(OCC2CC2)c1 [Example 250]
10 to 10000 nM | O=C(O)c1[nH]c2c(C(=O)c3ccccc3)cccc2c1-c1ccccc1 [Example 251]
10 to 10000 nM | COc1cccc(Cn2c(C(=O)O)c(-c3ccc(C(C)(C)C)cc3)c3cccc(C(=O)C4CC4)c32)c1 [Example 252]
0.1 to 9.99 nM | COc1cccc(Cn2c(C(=O)O)c(-c3ccc(C(C)(C)C)cc3)c3cc(CC4CC4)ccc32)c1 [Example 253]
10 to 10000 nM | COc1cccc(Cn2c(C(=O)O)c(-c3ccc(C(C)(C)C)cc3)c3cc(C(=O)C4CC4)ccc32)c1 [Example 254]
10 to 10000 nM | COc1cccc(Cn2c(C(=O)O)c(-c3ccc(C(C)(C)C)cc3)c3cc(C(O)C4CC4)ccc32)c1 (centres unmarked) [Example 255]
10 to 10000 nM | COc1cccc(Cn2c(C(=O)O)c(-c3ccc(C(C)(C)C)cc3)c3cccc(CC4CC4)c32)c1 [Example 256]
0.1 to 9.99 nM | O=C(O)c1c(-c2nc3cc(C(F)(F)F)ccc3s2)c2ccccc2n1Cc1cccc(C(F)(F)F)c1 [Example 257]
0.1 to 9.99 nM | COc1cccc(Cn2c(C(=O)O)c(-c3ccc(C4(C)CC4)cc3)c3ccccc32)c1 [Example 258]
0.1 to 9.99 nM | O=C(O)c1c(-c2ccc(C3CC3)cc2)c2ccccc2n1Cc1cccc(C(F)(F)F)c1 [Example 260]
0.1 to 9.99 nM | COc1cccc(Cn2c(C(=O)O)c(-c3ccc(C4CC4)cc3)c3ccccc32)c1 [Example 261]

IC50 | Structure (SMILES)
0.1 to 9.99 nM | O=C(O)c1c(-c2ccc(SC3CC3)cc2)c2ccccc2n1Cc1cccc(C(F)(F)F)c1 [Example 262]
0.1 to 9.99 nM | COc1cccc(Cn2c(C(=O)O)c(-c3ccc(SC4CC4)cc3)c3ccccc32)c1 [Example 263]
10 to 10000 nM | COc1cccc(Cn2c(C(=O)O)c(-c3ccc(OCC4CC4)cc3)c3cc(OCC(=O)O)ccc32)c1 [Example 267]
0.1 to 9.99 nM | CCOCCOc1ccc2c(c1)c(-c1cccc(OCC3CC3)c1)c(C(=O)O)n2Cc1cccc(OC)c1 [Example 271]
0.1 to 9.99 nM | COc1cccc(Cn2c(C(=O)O)c(-c3cccc(OCC4CC4)c3)c3cc(OCCOCc4ccccc4)ccc32)c1 [Example 272]
0.1 to 9.99 nM | COc1cccc(Cn2c(C(=O)O)c(-c3ccc(C(C)(C)C)cc3)c3cc(CCOCC4CC4)ccc32)c1 [Example 275]
10 to 10000 nM | Cc1sc(-c2ccccc2)nc1CCOc1ccc2c(c1)cc(C(=O)O)n2CC1CCCO1 (centres unmarked) [Example 276]
10 to 10000 nM | CN1CCCC1CCOc1ccc2cc(C(=O)O)n(Cc3cccc(C(F)(F)F)c3)c2c1 (centres unmarked) [Example 280]
10 to 10000 nM | COc1ccc(-c2c(C(=O)O)n(CC(=O)c3ccccc3)c3ccccc23)cc1 [Example 281]
0.1 to 9.99 nM | COc1cccc(-c2c(C(=O)O)n(Cc3cccc(OCC4CC4)c3)c3ccccc23)c1 [Example 283]
0.1 to 9.99 nM | COc1cccc(Cn2c(C(=O)O)c(-c3ccc(C(=O)N(C)C4CCCC4)cc3)c3ccccc32)c1 [Example 304]
0.1 to 9.99 nM | COc1cccc(Cn2c(C(=O)O)c(-c3ccc(OCC4CC4)cc3)c3ccccc32)c1 [Example 305, 3-[4-(Cyclopropylmethoxy)phenyl]-1-(3-methoxybenzyl)-1H-indole-2-carboxylic acid]
10 to 10000 nM | COc1cccc(Cn2c(C(=O)O)c(-c3ccc(OCC4CCCCO4)cc3)c3ccccc32)c1 (centres unmarked) [Example 306]
0.1 to 9.99 nM | COc1cccc(Cn2c(C(=O)O)c(-c3ccc(OCc4ccc5ccccc5n4)cc3)c3ccccc32)c1 [Example 307]
0.1 to 9.99 nM | O=C(O)c1c(-c2ccc(OCC3CC3)cc2)c2ccccc2n1Cc1cccc(C(F)(F)F)c1 [Example 308]
10 to 10000 nM | COc1cccc(Cn2c(C(=O)O)c(-c3ccc(OCC(=O)c4ccc(N5CCCC5)cc4)cc3)c3ccccc32)c1 [Example 310]
0.1 to 9.99 nM | COCCOc1ccc2c(c1)c(-c1ccc(OCC3CC3)cc1)c(C(=O)O)n2Cc1cccc(OC)c1 [Example 312]
0.1 to 9.99 nM | COc1cccc(Cn2c(C(=O)O)c(-c3ccc(OCC4CC4)cc3)c3cc(OCC=O)ccc32)c1 [Example 313]
0.1 to 9.99 nM | COc1cccc(Cn2c(C(=O)O)c(-c3ccc(OCC4CC4)cc3)c3cc(OCC4CCC4)ccc32)c1 [Example 314]

IC50 | Structure (SMILES)
0.1 to 9.99 nM | COc1cccc(COc2ccc3c(c2)c(-c2ccc(OCC4CC4)cc2)c(C(=O)O)n3Cc2cccc(OC)c2)c1 [Example 315]
10 to 10000 nM | COc1cccc(Cn2c(C(=O)O)c(-c3ccc(OCC4CC4)cc3)c3cc(OCc4ccc(C(C)(C)C)cc4)ccc32)c1 [Example 318]
10 to 10000 nM | COc1cccc(Cn2c(C(=O)O)c(-c3ccc(OCC4CC4)cc3)c3cc(OCc4ccc(C(F)(F)F)cc4)ccc32)c1 [Example 319]
0.1 to 9.99 nM | COc1cccc(Cn2c(C(=O)O)c(-c3ccc(OCC4CC4)cc3)c3cc(OCCCc4ccccc4)ccc32)c1 [Example 320]
0.1 to 9.99 nM | COc1cccc(Cn2c(C(=O)O)c(-c3ccc(OCC4CC4)cc3)c3cc(OCc4cccc(C(F)(F)F)c4)ccc32)c1 [Example 321]
10 to 10000 nM | COc1cccc(Cn2c(C(=O)O)c(-c3ccc(OCC4CC4)cc3)c3cc(OCc4ccc(C(=O)O)cc4)ccc32)c1 [Example 322]
10 to 10000 nM | COc1cccc(Cn2c(C(=O)O)c(-c3cccc(NC(=O)C4CC4)c3)c3ccccc32)c1 [Example 326]
0.1 to 9.99 nM | CCOc1ccc2c(c1)c(-c1ccc(OCC3CC3)cc1)c(C(=O)O)n2Cc1cccc(OC)c1 [Example 330, 3-[4-(Cyclopropylmethoxy)phenyl]-5-ethoxy-1-(3-methoxybenzyl)-1H-indole-2-carboxylic acid]
0.1 to 9.99 nM | CCCOc1ccc2c(c1)c(-c1ccc(OCC3CC3)cc1)c(C(=O)O)n2Cc1cccc(OC)c1 [Example 331]
0.1 to 9.99 nM | CCCCOc1ccc2c(c1)c(-c1ccc(OCC3CC3)cc1)c(C(=O)O)n2Cc1cccc(OC)c1 [Example 332]
10 to 10000 nM | C=CCOc1ccc2c(c1)c(-c1ccc(OCC3CC3)cc1)c(C(=O)O)n2Cc1cccc(OC)c1 [Example 333]
0.1 to 9.99 nM | COc1cccc(Cn2c(C(=O)O)c(-c3ccc(OCC4CC4)cc3)c3cc(OCC4CC4)ccc32)c1 [Example 334]
10 to 10000 nM | COc1ccc(-c2c(C(=O)O)n(S(=O)(=O)c3cccc(C(F)(F)F)c3)c3ccccc23)cc1 [Example 337, 3-(4-Methoxyphenyl)-1-{[3-(trifluoromethyl)phenyl]sulfonyl}indole-2-carboxylic acid]
10 to 10000 nM | COc1ccc(-c2c(C(=O)O)n(C(=O)c3cccc(C(F)(F)F)c3)c3ccccc23)cc1 [Example 338, 3-(4-Methoxyphenyl)-1-{[3-(trifluoromethyl)phenyl]carbonyl}indole-2-carboxylic Acid]
0.1 to 9.99 nM | O=C(O)c1c(-c2cccc(OCC3CC3)c2)c2ccccc2n1Cc1cccc(OC(F)(F)F)c1 [Example 340]
0.1 to 9.99 nM | CC(=O)c1cnc(-c2c(C(=O)O)n(Cc3cccc(C(F)(F)F)c3)c3ccccc23)s1 [Example 342]
0.1 to 9.99 nM | COc1cccc(Cn2c(C(=O)O)c(-c3ncc(C4CC4)s3)c3ccccc32)c1 [Example 344]
0.1 to 9.99 nM | CCOc1ccc(-c2c(C(=O)O)n(Cc3ccc(F)cc3)c3ccc(CCOCC4CC4)cc23)cc1 [Example 348, 5-[2-(Cyclopropylmethoxy)ethyl]-3-(4-ethoxyphenyl)-1-(4-fluorobenzyl)-1H-indole-2-carboxylic acid]
0.1 to 9.99 nM | COc1ccc(-c2c(C(=O)O)n(/C=C/c3ccccc3)c3ccccc23)cc1 [Example 349, 1-((1E)-2-Phenylvinyl)-3-(4-methoxyphenyl)indole-2-carboxylate]

Structure (SMILES) | IC50
O=C(O)c1c(C(=O)N2CCOCC2)c2ccccc2n1Cc1cccc(C(F)(F)F)c1 [Example 245] | 10 to 10000 nM
CN1CCN(C(=O)c2c(C(=O)O)n(Cc3cccc(C(F)(F)F)c3)c3ccccc23)CC1 [Example 246] | 10 to 10000 nM
